Measurements: PubChem BioAssay (NCI)
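These data come from cells grown in 96-well plates and exposed to compound for 48 hours at five concentrations. TGI is the concentration that stops growth completely.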

Columns and labels:
Experiment in all cases: NCI anticancer screen, dose series, 48 h
SF-295 CNS = system: SF-295 CNS
CAKI-1 renal = system: CAKI-1 renal
RPMI-8226 leukemia = system: RPMI-8226 leukemia
ACHN renal = system: ACHN renal
OVCAR-5 ovarian = system: OVCAR-5 ovarian
HCC-2998 colon = system: HCC-2998 colon
SN12C renal = system: SN12C renal
MALME-3M melanoma = system: MALME-3M melanoma
XF 498 CNS = system: XF 498 CNS
EKVX NSCLC = system: EKVX NSCLC
UACC-62 melanoma = system: UACC-62 melanoma
DMS 114 small cell lung = system: DMS 114 small cell lung
RXF 393 renal = system: RXF 393 renal
NCI-H23 lung = system: NCI-H23 lung
A498 renal = system: A498 renal
M14 melanoma = system: M14 melanoma
RXF-631 renal = system: RXF-631 renal
SK-MEL-28 melanoma = system: SK-MEL-28 melanoma
M19-MEL melanoma = system: M19-MEL melanoma
LXFL 529 NSCLC = system: LXFL 529 NSCLC
HT29 colon = system: HT29 colon
CCRF-CEM leukemia = system: CCRF-CEM leukemia
SW-620 colon = system: SW-620 colon
SNB-19 CNS = system: SNB-19 CNS
NCI-H226 lung = system: NCI-H226 lung
SNB-78 CNS = system: SNB-78 CNS
K-562 leukemia = system: K-562 leukemia
HOP-62 NSCLC = system: HOP-62 NSCLC
HL-60(TB) leukemia = system: HL-60(TB) leukemia
DLD-1 colon = system: DLD-1 colon
A549 NSCLC = system: A549 NSCLC
OVCAR-3 ovarian = system: OVCAR-3 ovarian
MOLT-4 leukemia = system: MOLT-4 leukemia
786-0 renal = system: 786-0 renal
KM20L2 colon = system: KM20L2 colon
HOP-92 NSCLC = system: HOP-92 NSCLC
COLO 205 colon = system: COLO 205 colon
SF-539 CNS = system: SF-539 CNS
TK-10 renal = system: TK-10 renal
OVCAR-4 ovarian = system: OVCAR-4 ovarian
LOX IMVI melanoma = system: LOX IMVI melanoma
SK-MEL-5 melanoma = system: SK-MEL-5 melanoma
HOP-18 NSCLC = system: HOP-18 NSCLC
HCT-15 colon = system: HCT-15 colon
IGROV1 ovarian = system: IGROV1 ovarian
UACC-257 melanoma = system: UACC-257 melanoma
OVCAR-8 ovarian = system: OVCAR-8 ovarian
SK-OV-3 ovarian = system: SK-OV-3 ovarian
SF-268 CNS = system: SF-268 CNS
UO-31 renal = system: UO-31 renal
U251 CNS = system: U251 CNS
KM12 colon = system: KM12 colon
NCI-H460 lung = system: NCI-H460 lung
SK-MEL-2 melanoma = system: SK-MEL-2 melanoma
HCT-116 colon = system: HCT-116 colon
NCI-H522 lung = system: NCI-H522 lung
DMS 273 small cell lung = system: DMS 273 small cell lung

Structure (SMILES): Cc1nc2ccccn2c1N=Nc1ccc(C(=O)NN)cc1
- TGI (SF-295 CNS): > 100 µM
- TGI (CAKI-1 renal): > 100 µM
- TGI (RPMI-8226 leukemia): > 100 µM
- TGI (ACHN renal): > 100 µM
- TGI (OVCAR-5 ovarian): > 100 µM
- TGI (HCC-2998 colon): > 100 µM
- TGI (SN12C renal): > 100 µM
- TGI (MALME-3M melanoma): > 100 µM
- TGI (XF 498 CNS): > 100 µM
- TGI (EKVX NSCLC): > 100 µM
- TGI (UACC-62 melanoma): > 100 µM
- TGI (DMS 114 small cell lung): > 100 µM
- TGI (RXF 393 renal): 60.1 µM
- TGI (NCI-H23 lung): > 100 µM
- TGI (A498 renal): > 100 µM
- TGI (M14 melanoma): > 100 µM
- TGI (RXF-631 renal): > 100 µM
- TGI (SK-MEL-28 melanoma): > 100 µM
- TGI (M19-MEL melanoma): > 100 µM
- TGI (LXFL 529 NSCLC): > 100 µM
- TGI (HT29 colon): > 100 µM
- TGI (CCRF-CEM leukemia): 30.6 µM
- TGI (SW-620 colon): > 100 µM
- TGI (SNB-19 CNS): > 100 µM
- TGI (NCI-H226 lung): > 100 µM
- TGI (SNB-78 CNS): > 100 µM
- TGI (K-562 leukemia): > 100 µM
- TGI (HOP-62 NSCLC): > 100 µM
- TGI (HL-60(TB) leukemia): > 100 µM
- TGI (DLD-1 colon): > 100 µM
- TGI (A549 NSCLC): > 100 µM
- TGI (OVCAR-3 ovarian): > 100 µM
- TGI (MOLT-4 leukemia): 40.8 µM
- TGI (786-0 renal): > 100 µM
- TGI (KM20L2 colon): > 100 µM
- TGI (HOP-92 NSCLC): > 100 µM
- TGI (COLO 205 colon): > 100 µM
- TGI (SF-539 CNS): > 100 µM
- TGI (TK-10 renal): > 100 µM
- TGI (OVCAR-4 ovarian): > 100 µM
- TGI (LOX IMVI melanoma): > 100 µM
- TGI (SK-MEL-5 melanoma): 69.1 µM
- TGI (HOP-18 NSCLC): > 100 µM
- TGI (HCT-15 colon): > 100 µM
- TGI (IGROV1 ovarian): 89.7 µM
- TGI (UACC-257 melanoma): > 100 µM
- TGI (OVCAR-8 ovarian): > 100 µM
- TGI (SK-OV-3 ovarian): > 100 µM
- TGI (SF-268 CNS): > 100 µM
- TGI (UO-31 renal): > 100 µM
- TGI (U251 CNS): > 100 µM

Structure (SMILES): CCOC(=O)C12CCCC1(O)N(NC(N)=O)C(C)=C2C(=O)OC (stereo unspecified)
- TGI (SF-295 CNS): > 100 µM
- TGI (CAKI-1 renal): > 100 µM
- TGI (RPMI-8226 leukemia): > 100 µM
- TGI (ACHN renal): > 100 µM
- TGI (OVCAR-5 ovarian): > 100 µM
- TGI (HCC-2998 colon): > 100 µM
- TGI (SN12C renal): > 100 µM
- TGI (MALME-3M melanoma): > 100 µM
- TGI (KM12 colon): > 100 µM
- TGI (XF 498 CNS): > 100 µM
- TGI (EKVX NSCLC): > 100 µM
- TGI (UACC-62 melanoma): > 100 µM
- TGI (DMS 114 small cell lung): > 100 µM
- TGI (NCI-H23 lung): > 100 µM
- TGI (A498 renal): > 100 µM
- TGI (M14 melanoma): > 100 µM
- TGI (RXF-631 renal): > 100 µM
- TGI (SK-MEL-28 melanoma): > 100 µM
- TGI (M19-MEL melanoma): > 100 µM
- TGI (LXFL 529 NSCLC): > 100 µM
- TGI (HT29 colon): > 100 µM
- TGI (CCRF-CEM leukemia): > 100 µM
- TGI (SW-620 colon): > 100 µM
- TGI (SNB-19 CNS): > 100 µM
- TGI (NCI-H226 lung): > 100 µM
- TGI (SNB-78 CNS): > 100 µM
- TGI (K-562 leukemia): > 100 µM
- TGI (HOP-62 NSCLC): > 100 µM
- TGI (HL-60(TB) leukemia): > 100 µM
- TGI (DLD-1 colon): > 100 µM
- TGI (A549 NSCLC): > 100 µM
- TGI (OVCAR-3 ovarian): > 100 µM
- TGI (MOLT-4 leukemia): > 100 µM
- TGI (786-0 renal): > 100 µM
- TGI (KM20L2 colon): > 100 µM
- TGI (HOP-92 NSCLC): > 100 µM
- TGI (NCI-H460 lung): > 100 µM
- TGI (COLO 205 colon): > 100 µM
- TGI (SK-MEL-2 melanoma): > 100 µM
- TGI (SF-539 CNS): > 100 µM
- TGI (TK-10 renal): > 100 µM
- TGI (OVCAR-4 ovarian): > 100 µM
- TGI (LOX IMVI melanoma): > 100 µM
- TGI (HCT-116 colon): > 100 µM
- TGI (HOP-18 NSCLC): > 100 µM
- TGI (NCI-H522 lung): > 100 µM
- TGI (HCT-15 colon): > 100 µM
- TGI (IGROV1 ovarian): > 100 µM
- TGI (DMS 273 small cell lung): > 100 µM
- TGI (UACC-257 melanoma): > 100 µM
- TGI (OVCAR-8 ovarian): > 100 µM
- TGI (SK-OV-3 ovarian): > 100 µM
- TGI (SF-268 CNS): > 100 µM
- TGI (UO-31 renal): > 100 µM
- TGI (U251 CNS): > 100 µM
